Measured values reported in US20040132819A1, “Appetite control method” (priority 2002, published 2004).
Read-outs that look alike come from different tables or passages of the source.

Assays:
[1] = system: diet-restricted BALB/c mice; conditions: cited from earlier work
[2] = pre-satiated rats, subcutaneous, all doses; cited from earlier work
brain NAEs and MAGs = conditions: piglets fed 0.2% AA (percent total fatty acids); cited from earlier work
[3] = system: rat brain N-acylethanolamines; assay: N-acylethanolamine (NAE) levels in rat brain; type: in vivo, Sprague-Dawley rat
Protocol: (§1) Total lipid was extracted from rat brains using the Folch extraction method, typical for lipid extraction (Folch et al, 1957). The total lipid extract from each rat brain was separated into neutral lipid and phospholipid fractions using a silica cartridge. The neutral lipid fraction was further separated into MAG and NAE fractions using High Performance Liquid Chromatography (HPLC). Fatty acid composition of the MAG, NAE, and phospholipid fractions was determined using Gas-Liquid Chromatography (GLC) after derivatizing to the corresponding fatty acid methyl esters. The fatty acid composition results correspond to total fatty acids in the membrane phospholipids in brain, and the MAG and NAE fatty acid results represent the concentration of these fatty acyl derivatives in rat brains.
(§2) Rat brain samples, stored frozen at −70° C., were separated into the two hemispheres; one half was used for determination of fatty acids in phospholipid, MAG, and NAE fractions and the other half was refrozen at −70° C. The half brain for analysis was transferred to a 50-mL glass centrifuge tube. Eight mL of methanol was added and the sample homogenized using a Polytron Dispersing and Mixing System (Kinematica, Switzerland) until well blended. The homogenizer probe was rinsed with 2 mL methanol added directly into the centrifuge tube. Twenty mL of chloroform was then added to the sample and mixed vigorously by shaking. The sample was left undisturbed at room temperature for at least 1 hour. Known amounts of internal standards, 9.91 μg of monoheptadecanoin and 3.32 μg of docosatrienoyl ethanolamine, were added. Six mL of 0.9% saline was then added and the sample mixed vigorously by shaking. The sample was then centrifuged for 7 minutes at 2000 rpm at 15° C. until the organic and aqueous layers were well separated using a Beckman Allegra™ 6R Centrifuge; Fullerton, Calif.). The chloroform (bottom) layer was aspirated into a clean 30-mL test tube. The sample was then evaporated to dryness under N2 and was either stored at −20° C. or reconstituted in 500 μL of chloroform. […]

[4] = system: rat brain phospholipid membrane; assay: Fatty acid levels in rat brain phospholipid membrane; type: in vivo, Sprague-Dawley rat; conditions: ANOVA main effect
Protocol: as §1, §2

[5] = system: rat brain monoacylglycerols; assay: Monoacylglycerol (MAG) levels in rat brain; type: in vivo, Sprague-Dawley rat; conditions: ANOVA main effect
Protocol: as §1
Rat brain samples, stored frozen at −70° C., were separated into the two hemispheres; one half was used for determination of fatty acids in phospholipid, MAG, and NAE fractions and the other half was refrozen at −70° C. The half brain for analysis was transferred to a 50-mL glass centrifuge tube. Eight mL of methanol was added and the sample homogenized using a Polytron Dispersing and Mixing System (Kinematica, Switzerland) until well blended. The homogenizer probe was rinsed with 2 mL methanol added directly into the centrifuge tube. […]

[6] = Postprandial leptin and circulating insulin levels; type: in vivo, Sprague-Dawley rat
Protocol: The rat pups were sacrificed by decapitation on day 20 after the food intake phase and final body weights were taken. The brain was removed, weighed, and quickly frozen (within 5 minutes) in liquid nitrogen. Brain tissue was stored in a −70° C. freezer. Blood was collected from the neck stump, mixed with heparin, placed on ice, and centrifuged to ensure adequate phase separation to prepare plasma. Plasma was stored at −70° C.
Postprandial leptin levels in the rats fed the ARA-containing formulas during the formula feeding phase were about 20-30% lower than for rats fed the formulas without ARA. Postprandial leptin levels in the rats fed the DHA-containing formulas were about 5-15% higher than for rats fed the formulas without DHA. No differences in circulating insulin levels were found among the groups.

[7] = Deaths during artificial rearing; type: in vivo, Sprague-Dawley rat; conditions: combined rearings; vs 10 rats without DHA, p=0.054
Text: Male rat pups were removed from dams on postnatal day 6 and artificially reared on rat milk formulas to day 18. This procedure has been described in detail in the literature by Sonnenberg et al, 1982; Smart et al, 1983 and 1984; and Auestad et al, 1989. Similar procedures have been also been described by Ward et al, 1998, and Wainwright et al, 1999. On postnatal day 6, rat pups were randomly assigned to one of the four experimental rat milk formula groups (Table 3.2). The rat pups were lightly anesthetized, fitted with an intragastric cannula, and placed individually in pint-sized plastic containers free floating in a waterbath maintained at 36±2° C. The cannulae for individual rat pups were each connected to syringes filled with one of the four experimental rat milk formulas using polyethylene tubing. The rat pups were fed by intermittent, intragastric infusion, from day 6 to day 18. The formula was delivered to the rat pups for 20 or 30 min each hour, depending on the age of the rat, using a programmable pump housed in a bench-top refrigerator. The pump settings were modified daily to deliver specific quantities of rat milk formula to the rat pups to support normal growth.
Two groups of rats were artificially reared one in February 2002 and one in April 2002. The plan was to cannulate a total of 64 rats, thirty-two per rearing and 8 rats per experimental formula group. […]

[8] = system: hypothalamic 20:4n-6 NAE and 20:4n-6 MAG; conditions: 125 or 250 μg intravenously, within 30 minutes, normal Sprague-Dawley rats; cited from earlier work

For `CCCCC/C=C\C/C=C\C/C=C\C/C=C\CCCC(=O)NCCO` [20:4n-6 NAE, 5,8,11,14-eicosatetraenamide, (N-2-hydroxyethyl)-(all-Z)], the “food consumption vs control group” value ([1]; 0.001 mg/kg intraperitoneally, 40% calorie restriction) is given as “consumed significantly more food”, the “food consumption vs control group” value ([1]; 0.7 or 4 mg/kg intraperitoneally) is given as “did not show any significant change” and the effect on eating [2] is given as “induced significant overeating”.

For `CCCCC/C=C\C/C=C\C/C=C\C/C=C\CCCC(=O)O` [AA, arachidonic acid], the “20:4n-6 NAE increase in brain” value (brain NAEs and MAGs) is given as 4 fold, the “main effect on 20:4n-6 NAE in brain” value ([3]; ANOVA main effect) is given as “increasing” and the “main effect on total n-6 NAE in brain” value ([3]; ANOVA main effect) is given as “increasing”. The “increase in 20:4n-6 NAE in brain” value ([3]; rats fed formulas with AA, p=0.008) was 40%, the “main effect on AA and C22:4n-6 levels in brain phospholipids” value [4] was “increasing” and the “main effect on brain phospholipid DHA” value [4] was “decreasing”. The “main effect on linoleic acid (C18:2n-6) and C20:3n-6 levels in brain phospholipids” value [4] was “decreasing”, the “main effects on n-6 or n-3 MAG in brain” value [5] was “no significant main effects” and the “postprandial leptin levels lower than in rats fed formulas without ARA” value ([6]; ARA-containing formulas during formula feeding phase) was 20-30%.

For `CC/C=C\C/C=C\C/C=C\C/C=C\C/C=C\C/C=C\CCC(=O)O` [DHA, docosahexaenoic acid], the “rats that died when DHA was in the formula” value [7] was 3 rats and the “postprandial leptin levels higher than in rats fed formulas without DHA” value ([6]; DHA-containing formulas) was 5-15%.

For “leptin: peptide hormone secreted from adipose cells”, the “decrease of hypothalamic levels of 20:4n-6 NAE and 20:4n-6 MAG vs untreated controls” value [8] is listed as 40-50%.
